We go through 48 compounds from patent US8557816B2, “Aurora kinase modulators and method of use” (Amgen Inc., priority 2007, dated 2013).

Test [1] concerns the target T1, AuroraA-TPX2 (Homo sapiens, UniProt O14965).
T1 construct: 20 μL of AuroraA-TPX2 KD GST for a final volume of about 41 μL; GST
T1 sequence (O14965 133-383 limits assumed): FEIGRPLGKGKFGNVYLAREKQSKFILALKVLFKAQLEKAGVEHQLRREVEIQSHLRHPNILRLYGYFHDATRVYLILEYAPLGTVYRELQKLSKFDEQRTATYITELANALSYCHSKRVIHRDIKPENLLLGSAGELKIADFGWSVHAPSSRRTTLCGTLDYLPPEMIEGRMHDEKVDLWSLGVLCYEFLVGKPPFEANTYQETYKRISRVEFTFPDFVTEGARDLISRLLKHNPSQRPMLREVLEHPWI
T1 sequence (Q9ULW0 1-43 partner limits assumed): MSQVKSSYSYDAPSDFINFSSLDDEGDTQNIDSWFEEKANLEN
The test is described as follows: AuroraA-TPX2 Homogeneous Time Resolved Fluorescent (HTRF) kinase assay. As to conditions: average; read-out: AurA_IC50_IP (uM Avg). The class given is biochemical. In outline:
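HTRF read-out (Eu 615 nm to APC 655 nm) of phosphorylated biotin-PLK, detected with 0.02 nM europium anti-phosphoPLK antibody and 0.0005 mg/mL SA-APC after overnight equilibration.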

Test [2] concerns the target T2, AuroraB (Homo sapiens, UniProt Q96GD4).
T2 construct: 20 μL of AuroraB FL H is for a final volume of 41 μL; His
The test is described as follows: AuroraB Homogeneous Time Resolved Fluorescent (HTRF) kinase assay. The class given is biochemical. The note with it: average; read-out: AurB_IC50_IP (uM Avg). In outline:
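Read-out is time-resolved FRET between europium anti-phospho-H3 antibody and streptavidin-APC, added in EDTA buffer to stop the reaction and equilibrated about 60 min (ex 320, em 615 and 655 nm). Preceding reaction: ~90 min, full-length enzyme, ATP, 0.1 μM biotin-Histone H3 substrate, Mg/Mn HEPES buffer pH 7.5.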
Background: TR-FRET usually uses a lanthanide donor and a delayed reading to cut background.

T2 sequence (Q96GD4 whole entry): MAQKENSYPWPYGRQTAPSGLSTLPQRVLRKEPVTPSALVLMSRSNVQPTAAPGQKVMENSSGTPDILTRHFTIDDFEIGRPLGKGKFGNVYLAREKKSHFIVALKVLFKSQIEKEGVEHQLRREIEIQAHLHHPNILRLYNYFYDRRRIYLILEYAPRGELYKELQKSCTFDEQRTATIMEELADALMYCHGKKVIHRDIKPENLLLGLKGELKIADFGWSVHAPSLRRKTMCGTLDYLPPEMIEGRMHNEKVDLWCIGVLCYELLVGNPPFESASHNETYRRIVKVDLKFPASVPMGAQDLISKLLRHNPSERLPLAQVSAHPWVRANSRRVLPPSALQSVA

For `FC(F)(F)Oc1ccc2c(Sc3ccc(Nc4nnc(-c5ccccc5)c5ccccc45)cc3)ccnc2c1` [compound 497], the IC50 in test [1] is above 25 µM; in test [2], 0.333 µM.
For the compound `FC(F)(F)Oc1ccc2c(Oc3ccc(Nc4nnc(-c5ccc(Cl)cc5)c5ccccc45)cc3)ccnc2c1` [compound 498], the figures for the IC50 in test [1] and in test [2] were 0.183 µM and 0.165 µM, respectively.
Regarding `Cc1csc(-c2nnc(Nc3ccc(Sc4ccnc5cc(OC(F)(F)F)ccc45)cc3)c3ccccc23)c1` [compound 499], the IC50 in test [1] was 0.277 µM; in test [2], 0.363 µM.
The like results for `CN(c1ccc(Oc2ccnc3ccc(=O)[nH]c23)cc1)c1nnc(-c2ccc(Cl)cc2)c2ccccc12` [compound 500] were, in that order, above 25 µM and 4.17 µM.
With `COc1cnc2c(Sc3ccc(Nc4nnc(-c5ccc6occc6c5)c5ccccc45)cc3)ccnc2c1` [compound 501], the IC50 in test [1] amounted to 0.029 µM; in test [2], 0.058 µM.
For the compound `COc1cnc2c(Sc3ccc(Nc4nnc(-c5ccc6cn(C)nc6c5)c5ccccc45)cc3)ccnc2c1` [compound 502], the values for the IC50 in test [1] and in test [2] were 0.027 µM and 0.009 µM, respectively.
Turning to `COc1cnc2c(Sc3ccc(Nc4nnc(N5CCN(C)CC5)c5ccccc45)cc3)ccnc2c1` [compound 503], the IC50 in test [1] came out at 0.02 µM; in test [2], 0.007 µM.
With `COc1cnc2c(Sc3ccc(Nc4nnc(-c5ccc6nonc6c5)c5ccccc45)cc3)ccnc2c1` [compound 504], the IC50 in test [1] was 0.017 µM; in test [2], 0.032 µM.
Consider `CCOc1nc(-c2nnc(Nc3ccc(Sc4ccnc5cc(OC)cnc45)cc3)c3ccccc23)cs1` [compound 505], for which the results for the IC50 in test [1] and in test [2] were 0.016 µM and 0.014 µM, respectively.
Regarding `COc1cnc2c(Sc3ccc(Nc4nnc(-c5cscn5)c5ccccc45)cc3)ccnc2c1` [compound 506], the IC50 worked out at 0.748 µM in test [1] and 0.089 µM in test [2].
The like results for `COc1cnc2c(Sc3ccc(Nc4nnc(N5CCN(CC(F)F)CC5)c5ccccc45)cc3)ccnc2c1` [compound 507] were, in that order, 0.152 µM and 0.042 µM.
For the compound `COc1cnc2c(Sc3ccc(Nc4nnc(NCCCSC)c5ccccc45)cc3)ccnc2c1` [compound 508], the IC50 in test [1] turned out to be 0.082 µM; in test [2], 0.009 µM.
For `COc1ccc(-c2nnc(Nc3ccc(Sc4ccnc5cccnc45)cc3)c3ccccc23)cn1` [compound 509] the same measures were 0.317 µM and 0.013 µM.
The like results for `Cc1csc(-c2nnc(Nc3ccc(Oc4ccnc5cccnc45)cc3)c3cc(F)c(F)cc23)c1` [compound 510] were, in that order, 0.32 µM and 0.05 µM.
The like results for `COc1cnc2c(Sc3ccc(Nc4nnc(OC(C)C)c5ccccc45)cc3)ccnc2c1` [compound 511] were, in that order, 0.585 µM and 0.069 µM.
For the compound `CCOc1nnc(Nc2ccc(Sc3ccnc4cc(OC)cnc34)cc2)c2ccccc12` [compound 512], the IC50 is 0.501 µM in test [1] and 0.12 µM in test [2].
For the compound `COc1cnc2c(Sc3ccc(Nc4nnc(OCC(F)(F)F)c5ccccc45)cc3)ccnc2c1` [compound 513], the figures for the IC50 in test [1] and in test [2] were 0.231 µM and 0.03 µM, respectively.
On to `COc1cnc2c(Sc3ccc(Nc4nnc(SC)c5ccccc45)cc3)ccnc2c1` [compound 514], for which the IC50 stood at 0.189 µM in test [1] and 0.01 µM in test [2].
The like results for `COCCOc1nnc(Nc2ccc(Sc3ccnc4cc(OC)cnc34)cc2)c2ccccc12` [compound 515] were, in that order, 0.072 µM and 0.012 µM.
Regarding `COc1cnc2c(Sc3ccc(Nc4nnc(-c5cccc(Cl)c5)c5ccccc45)cc3)ccnc2c1` [compound 516], the IC50 is 0.088 µM in test [1] and 0.068 µM in test [2].
For `c1ccc2c(Sc3ccc(Nc4nnc(-c5ccc6c(c5)OCO6)c5ccccc45)cc3)ccnc2c1` [compound 517] the same measures were 0.15 µM and 0.017 µM.
For `Clc1cccc(-c2nnc(Nc3ccc(Sc4ccnc5ccsc45)cc3)c3ccccc23)c1` [compound 518] the same measures were 0.218 µM and 0.01 µM.
The like results for `COc1cnc2c(Sc3ccc(Nc4nnc(-c5ccccc5)c5ccccc45)cc3F)ccnc2c1` [compound 519] were, in that order, 0.083 µM and 0.053 µM.
Turning to `COc1cnc2c(Sc3ccc(Nc4nnc(N5CCCC5)c5ccccc45)cc3)ccnc2c1` [compound 521], the figures for the IC50 in test [1] and in test [2] were 0.112 µM and 0.025 µM, respectively.
For `COc1cnc2c(Sc3ccc(Nc4nnc(-c5ccc6c(c5)OCO6)c5ccccc45)cc3F)ccnc2c1` [compound 522] the same measures were 0.009 µM and 0.022 µM.
For `COc1cnc2c(Sc3ccc(Nc4nnc(N5CCC(C(F)(F)F)CC5)c5ccccc45)cc3)ccnc2c1` [compound 523] the same measures were 0.036 µM and 0.144 µM.
For `CCCN(C)c1nnc(Nc2ccc(Sc3ccnc4cc(OC)cnc34)cc2)c2ccccc12` [compound 524] the same measures were 0.093 µM and 0.099 µM.
As for `COc1cnc2c(Oc3ccc(Nc4nnc(-c5ccc(C)c(OC)c5)c5ccccc45)cc3)ccnc2c1` [compound 525], the results for the IC50 in test [1] and in test [2] were 0.013 µM and 0.028 µM, respectively.
For `COc1cnc2c(Sc3ccc(Nc4nnc(N5CCC(Cl)CC5)c5ccccc45)cc3)ccnc2c1` [compound 527] the same measures were 0.036 µM and 0.138 µM.
Regarding `COc1cnc2c(Sc3ccc(Nc4nnc(-c5cc(C)cs5)c5ccccc45)cc3F)ccnc2c1` [compound 528], the IC50 stood at 0.064 µM in test [1] and 0.293 µM in test [2].
The like results for `COc1cnc2c(Sc3ccc(Nc4nnc(-c5ccc(C)c(OC)c5)c5ccccc45)cc3)ccnc2c1` [compound 529] were, in that order, 0.02 µM and 0.037 µM.
`COc1cnc2c(Sc3ccc(Nc4nnc(-c5ccc6c(c5)OCO6)c5ccccc45)cc3)ccnc2c1` [compound 530]: the IC50 in test [1] and in test [2] was 0.014 µM in each case.
In the case of `COc1cnc2c(Sc3ccc(Nc4nnc(N5CCC(F)(F)CC5)c5ccccc45)cc3)ccnc2c1` [compound 531], the IC50 in test [1] is 0.089 µM; in test [2], 0.024 µM.
The like results for `COc1cnc2c(Sc3ccc(Nc4nnc(N5CCC[C@@H](OC)C5)c5ccccc45)cc3)ccnc2c1` [compound 532] were, in that order, 0.061 µM and 0.019 µM.
`COCCNc1nnc(Nc2ccc(Sc3ccnc4cc(OC)cnc34)cc2)c2ccccc12` [compound 533]: the IC50 in test [1] was determined as 0.045 µM; in test [2] it was 0.03 µM.
For the compound `COC1CCN(c2nnc(Nc3ccc(Sc4ccnc5cc(C#N)ccc45)cc3)c3ccccc23)CC1` [compound 534], the IC50 in test [1] is 0.035 µM; in test [2], 0.02 µM.
Turning to `COCCCNc1nnc(Nc2ccc(Sc3ccnc4cc(OC)cnc34)cc2)c2ccccc12` [compound 535], the IC50 in test [1] is 0.022 µM; in test [2] it was 0.02 µM.
For `COc1cnc2c(Sc3ccc(Nc4nnc(Cl)c5ccccc45)cc3)ccnc2c1` [compound 536] the same measures were 0.812 µM and 0.031 µM.
For the compound `COc1cnc2c(Sc3ccc(Nc4nnc(NCCc5ccccn5)c5ccccc45)cc3)ccnc2c1` [compound 537], the IC50 in test [1] stood at 0.198 µM; in test [2], 0.111 µM.
`COc1cnc2c(Sc3ccc(Nc4nnc(N5CCC(N6CCCC6)CC5)c5ccccc45)cc3)ccnc2c1` [compound 538]: the IC50 came to 3.43 µM in test [1] and 0.045 µM in test [2].
Take `COc1cnc2c(Oc3ccc(Nc4nnc(-c5cc(F)cc(F)c5)c5ccccc45)cc3)ccnc2c1` [compound 539]: the IC50 amounted to 0.133 µM in test [1] and 0.02 µM in test [2].
The like results for `COc1cnc2c(Sc3ccc(Nc4nnc(C5CC5)c5ccccc45)cc3)ccnc2c1` [compound 541] were, in that order, 0.393 µM and 0.025 µM.
Turning to `COc1cnc2c(Oc3ccc(Nc4nncc5ccccc45)cc3)ccnc2c1` [compound 542, N-(4-((7-methoxy-1,5-naphthyridin-4-yl)oxy)phenyl)-1-phthalazinamine], the results for the IC50 in test [1] and in test [2] were 0.319 µM and 0.041 µM, respectively.
For `COc1cnc2c(Oc3ccc(Nc4nnc(C5CC5)c5ccccc45)cc3)ccnc2c1` [compound 543] the same measures were 0.581 µM and 0.044 µM.
With `COc1cnc2c(Oc3ccc(Nc4nnc(-c5ccc(C)c(N)c5)c5cc(F)c(F)cc45)cc3)ccnc2c1` [compound 545], the IC50 in test [1] was 0.085 µM; in test [2], 0.02 µM.
For `COc1cnc2c(Oc3ccc(Nc4nnc(-c5ccccc5Cl)c5ccccc45)cc3)ccnc2c1` [compound 546] the same measures were 0.723 µM and 0.135 µM.
The like results for `COc1cnc2c(Sc3ccc(Nc4nncc5ccccc45)cc3)ccnc2c1` [compound 547, N-(4-((7-methoxy-1,5-naphthyridin-4-yl)sulfanyl)phenyl)-1-phthalazinamine] were, in that order, 0.335 µM and 0.02 µM.
Regarding `COc1ccc2nccc(Sc3ccc(Nc4nnc(N5CCCCC5)c5ccccc45)cc3)c2n1` [compound 548], the values for the IC50 in test [1] and in test [2] were 0.27 µM and 0.031 µM, respectively.
